ChEMBL document CHEMBL2177005, “Mineralocorticoid receptor antagonists for the treatment of hypertension and diabetic nephropathy” (J Med Chem, 2012)
One block for each compound: values may come before it.

Tests used:
Progesterone receptor [1] = biological target: T1, Progesterone receptor (Homo sapiens, UniProt P06401); assay: Antagonist activity at progesterone receptor; type: functional
T1 sequence (P06401 whole entry): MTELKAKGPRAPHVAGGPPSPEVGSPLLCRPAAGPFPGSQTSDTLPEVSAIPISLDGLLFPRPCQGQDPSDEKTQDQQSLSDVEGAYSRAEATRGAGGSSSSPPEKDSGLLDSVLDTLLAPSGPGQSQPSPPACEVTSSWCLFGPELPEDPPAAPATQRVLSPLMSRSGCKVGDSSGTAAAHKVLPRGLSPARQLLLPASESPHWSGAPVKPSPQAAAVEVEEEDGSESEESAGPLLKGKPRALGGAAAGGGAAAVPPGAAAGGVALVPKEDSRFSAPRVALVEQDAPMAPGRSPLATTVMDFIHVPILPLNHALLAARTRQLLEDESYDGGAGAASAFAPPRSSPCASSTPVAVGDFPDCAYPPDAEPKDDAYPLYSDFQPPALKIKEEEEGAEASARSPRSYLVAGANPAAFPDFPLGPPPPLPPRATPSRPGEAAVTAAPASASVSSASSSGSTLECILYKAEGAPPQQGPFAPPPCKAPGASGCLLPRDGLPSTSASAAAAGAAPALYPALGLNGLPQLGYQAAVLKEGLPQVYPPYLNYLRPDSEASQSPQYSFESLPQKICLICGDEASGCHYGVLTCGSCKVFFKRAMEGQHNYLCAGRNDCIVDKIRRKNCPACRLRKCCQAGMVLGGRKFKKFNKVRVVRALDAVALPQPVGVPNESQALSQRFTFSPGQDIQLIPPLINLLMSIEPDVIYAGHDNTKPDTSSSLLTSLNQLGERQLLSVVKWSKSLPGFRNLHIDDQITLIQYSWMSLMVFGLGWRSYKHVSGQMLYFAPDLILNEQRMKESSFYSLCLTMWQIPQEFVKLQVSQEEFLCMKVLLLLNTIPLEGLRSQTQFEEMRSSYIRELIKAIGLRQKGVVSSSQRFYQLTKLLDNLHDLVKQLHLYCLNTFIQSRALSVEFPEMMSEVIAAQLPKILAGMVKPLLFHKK

Progesterone receptor [2] = biological target: T1, Progesterone receptor; assay: Displacement of [3H]methyltrienolone from human progesterone receptor overexpressed in HEK293 cells by microbeta counting assay; type: cell-based
Androgen receptor [3] = biological target: T2, Androgen receptor (Homo sapiens, UniProt P10275); assay: Displacement of [3H]-methyltrienolone from human androgen receptor overexpressed in HEK293 cells by microbeta counting assay; type: cell-based
T2 sequence (P10275 whole entry): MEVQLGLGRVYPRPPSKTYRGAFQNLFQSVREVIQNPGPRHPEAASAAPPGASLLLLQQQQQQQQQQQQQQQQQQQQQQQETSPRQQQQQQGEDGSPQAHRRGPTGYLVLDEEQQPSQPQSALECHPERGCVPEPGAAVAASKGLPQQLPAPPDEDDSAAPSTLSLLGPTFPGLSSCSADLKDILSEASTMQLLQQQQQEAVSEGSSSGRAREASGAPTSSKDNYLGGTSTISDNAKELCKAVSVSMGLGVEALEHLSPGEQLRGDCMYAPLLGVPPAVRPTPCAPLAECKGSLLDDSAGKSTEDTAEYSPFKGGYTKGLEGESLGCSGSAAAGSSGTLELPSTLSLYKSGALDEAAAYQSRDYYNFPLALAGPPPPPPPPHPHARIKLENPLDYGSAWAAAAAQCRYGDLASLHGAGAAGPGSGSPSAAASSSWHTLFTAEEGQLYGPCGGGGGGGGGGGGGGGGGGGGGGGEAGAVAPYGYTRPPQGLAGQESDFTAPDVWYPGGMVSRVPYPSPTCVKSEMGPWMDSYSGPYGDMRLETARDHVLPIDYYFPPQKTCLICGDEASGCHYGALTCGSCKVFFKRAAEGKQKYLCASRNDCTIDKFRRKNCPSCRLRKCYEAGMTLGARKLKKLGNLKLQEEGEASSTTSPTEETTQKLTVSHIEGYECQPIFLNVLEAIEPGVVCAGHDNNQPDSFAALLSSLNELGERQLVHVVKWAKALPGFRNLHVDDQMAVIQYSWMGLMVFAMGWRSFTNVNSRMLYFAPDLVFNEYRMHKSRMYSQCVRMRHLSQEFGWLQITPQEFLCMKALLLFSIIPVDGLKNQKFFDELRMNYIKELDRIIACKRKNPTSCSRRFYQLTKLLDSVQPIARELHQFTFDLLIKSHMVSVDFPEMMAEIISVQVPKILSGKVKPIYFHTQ

Glucocorticoid receptor [4] = biological target: T3, Glucocorticoid receptor (Homo sapiens, UniProt P04150); assay: Displacement of [3H]dexamethasone from human glucocorticoid receptor overexpressed in HEK293 cells by microbeta counting assay; type: cell-based
T3 sequence (P04150 whole entry): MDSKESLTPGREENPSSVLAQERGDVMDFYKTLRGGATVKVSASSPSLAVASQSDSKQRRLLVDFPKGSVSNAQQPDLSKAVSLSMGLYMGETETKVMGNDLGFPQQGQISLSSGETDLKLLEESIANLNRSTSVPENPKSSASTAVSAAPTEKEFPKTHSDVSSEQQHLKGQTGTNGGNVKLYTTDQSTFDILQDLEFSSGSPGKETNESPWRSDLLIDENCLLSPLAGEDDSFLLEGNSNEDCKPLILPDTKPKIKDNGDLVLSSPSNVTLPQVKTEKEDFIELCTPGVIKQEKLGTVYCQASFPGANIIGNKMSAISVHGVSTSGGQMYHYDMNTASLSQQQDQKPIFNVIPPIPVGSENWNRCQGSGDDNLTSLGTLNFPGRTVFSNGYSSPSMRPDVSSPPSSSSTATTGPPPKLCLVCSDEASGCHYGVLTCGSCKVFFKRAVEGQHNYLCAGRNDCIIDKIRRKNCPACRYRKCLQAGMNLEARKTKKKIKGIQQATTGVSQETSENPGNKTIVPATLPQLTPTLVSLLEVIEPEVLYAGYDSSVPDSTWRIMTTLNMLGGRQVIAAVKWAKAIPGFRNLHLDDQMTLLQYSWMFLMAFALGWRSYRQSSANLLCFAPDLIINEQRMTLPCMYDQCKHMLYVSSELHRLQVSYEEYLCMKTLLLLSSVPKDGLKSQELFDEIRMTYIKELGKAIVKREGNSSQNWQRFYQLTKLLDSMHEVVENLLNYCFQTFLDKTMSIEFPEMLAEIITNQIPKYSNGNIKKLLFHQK

[5] = biological target: T4, Mineralocorticoid receptor (Homo sapiens, UniProt P08235); assay: Displacement of [3H]aldosterone from human mineralocorticoid receptor overexpressed in HEK293 cells by microbeta counting assay; type: cell-based
T4 sequence (P08235 whole entry): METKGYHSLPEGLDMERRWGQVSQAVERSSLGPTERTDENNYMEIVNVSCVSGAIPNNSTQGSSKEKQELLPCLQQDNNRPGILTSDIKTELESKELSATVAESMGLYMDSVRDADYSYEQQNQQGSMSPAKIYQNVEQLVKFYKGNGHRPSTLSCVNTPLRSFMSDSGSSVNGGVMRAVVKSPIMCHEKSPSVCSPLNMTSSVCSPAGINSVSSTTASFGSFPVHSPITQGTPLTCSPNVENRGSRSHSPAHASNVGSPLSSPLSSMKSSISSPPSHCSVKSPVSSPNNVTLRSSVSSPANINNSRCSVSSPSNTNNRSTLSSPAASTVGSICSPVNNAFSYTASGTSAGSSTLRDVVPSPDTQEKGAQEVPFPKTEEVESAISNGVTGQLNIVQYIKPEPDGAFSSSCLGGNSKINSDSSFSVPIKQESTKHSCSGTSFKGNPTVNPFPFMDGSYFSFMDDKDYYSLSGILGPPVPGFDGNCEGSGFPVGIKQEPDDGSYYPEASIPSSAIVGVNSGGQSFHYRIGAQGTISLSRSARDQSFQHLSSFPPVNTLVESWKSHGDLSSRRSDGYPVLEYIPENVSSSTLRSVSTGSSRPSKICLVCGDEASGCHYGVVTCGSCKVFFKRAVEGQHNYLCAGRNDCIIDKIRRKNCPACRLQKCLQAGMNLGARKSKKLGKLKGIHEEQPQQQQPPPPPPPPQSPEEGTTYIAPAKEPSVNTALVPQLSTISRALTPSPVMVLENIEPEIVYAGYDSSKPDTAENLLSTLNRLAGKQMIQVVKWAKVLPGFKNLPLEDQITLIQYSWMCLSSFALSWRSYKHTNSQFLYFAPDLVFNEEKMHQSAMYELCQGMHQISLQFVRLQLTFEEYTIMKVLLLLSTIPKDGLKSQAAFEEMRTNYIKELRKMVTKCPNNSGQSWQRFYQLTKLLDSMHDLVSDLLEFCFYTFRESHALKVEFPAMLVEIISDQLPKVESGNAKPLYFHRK

Progesterone receptor [6] = biological target: T1, Progesterone receptor; assay: Antagonist activity against progesterone receptor expressed in CHOK1 cells after 10 to 30 mins by luciferase reporter gene assay; type: functional, cell-based, CHO-K1
Androgen receptor [7] = biological target: T2, Androgen receptor; assay: Antagonist activity against androgen receptor expressed in CHOK1 cells after 10 to 30 mins by luciferase reporter gene assay; type: functional, cell-based, CHO-K1
Glucocorticoid receptor [8] = biological target: T3, Glucocorticoid receptor; assay: Antagonist activity against glucocorticoid receptor expressed in CHOK1 cells after 10 to 30 mins by luciferase reporter gene assay; type: functional, cell-based, CHO-K1
[9] = biological target: T4, Mineralocorticoid receptor; assay: Antagonist activity against human mineralocorticoid receptor expressed in CHOK1 cells after 10 to 30 mins by luciferase reporter gene assay; type: functional, cell-based, CHO-K1
[10] = biological target: T4, Mineralocorticoid receptor; assay: Antagonist activity at mineralocorticoid receptor expressed in african green monkey COS7 cells after 18 hrs by luciferase reporter gene assay; type: functional, cell-based, COS-7
[11] = biological target: T5, Mineralocorticoid receptor (Rattus norvegicus, UniProt P22199); assay: Displacement of [3H]-aldosterone from rat mineralocorticoid receptor after 18 hrs by liquid scintillation counter analysis
T5 sequence (P22199 whole entry): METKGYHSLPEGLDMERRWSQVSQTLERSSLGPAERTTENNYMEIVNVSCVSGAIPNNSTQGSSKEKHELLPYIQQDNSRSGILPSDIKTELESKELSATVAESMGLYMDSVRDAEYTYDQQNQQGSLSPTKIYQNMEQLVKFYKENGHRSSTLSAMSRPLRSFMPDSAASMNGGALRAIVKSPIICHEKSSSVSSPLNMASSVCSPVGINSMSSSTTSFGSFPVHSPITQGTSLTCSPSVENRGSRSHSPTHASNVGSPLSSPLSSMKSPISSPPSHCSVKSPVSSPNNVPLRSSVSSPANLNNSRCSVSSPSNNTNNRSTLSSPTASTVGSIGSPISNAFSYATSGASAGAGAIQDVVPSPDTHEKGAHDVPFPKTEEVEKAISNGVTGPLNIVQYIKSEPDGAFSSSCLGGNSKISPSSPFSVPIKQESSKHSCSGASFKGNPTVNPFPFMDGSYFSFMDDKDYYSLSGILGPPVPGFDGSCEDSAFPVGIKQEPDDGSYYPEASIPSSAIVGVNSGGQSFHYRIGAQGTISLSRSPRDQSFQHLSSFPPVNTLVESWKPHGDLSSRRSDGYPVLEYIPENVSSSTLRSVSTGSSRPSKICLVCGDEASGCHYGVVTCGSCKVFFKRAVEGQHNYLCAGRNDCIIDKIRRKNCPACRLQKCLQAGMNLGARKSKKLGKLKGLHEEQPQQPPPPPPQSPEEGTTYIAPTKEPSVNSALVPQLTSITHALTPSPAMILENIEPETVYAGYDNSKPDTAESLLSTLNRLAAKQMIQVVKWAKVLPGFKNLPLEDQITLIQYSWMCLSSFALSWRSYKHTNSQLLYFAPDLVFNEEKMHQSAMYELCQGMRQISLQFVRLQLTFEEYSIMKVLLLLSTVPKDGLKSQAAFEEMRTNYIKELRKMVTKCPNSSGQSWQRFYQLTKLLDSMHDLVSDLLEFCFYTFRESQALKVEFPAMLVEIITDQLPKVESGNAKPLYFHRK

[12] = biological target: T5, Mineralocorticoid receptor; assay: Displacement of [3H]Aldosterone C from rat mineralocorticoid receptor by liquid scintillation counter analysis
[13] = biological target: T4, Mineralocorticoid receptor; assay: Antagonist activity at mineralocorticoid receptor; type: functional
[14] = Protein binding in plasma; type: ADME, cell-free; details: read-out: PPB (converted)
[15] = Binding affinity to Ca2+ channel L type by radioligand binding assay
[16] = biological target: T5, Mineralocorticoid receptor; assay: Binding affinity to rat mineralocorticoid receptor

IC50 (Progesterone receptor [1]): > 10000 nM
SMILES: O=C1COc2ccc(C3=Nn4cnnc4SC3c3ccccc3)cc2N1 (configuration not stated)

Ki (Progesterone receptor [2]): 478 nM | Ki (Androgen receptor [3]): 1170 nM | Ki (Glucocorticoid receptor [4]): 669 nM | Ki [5]: 0.4 nM
SMILES: O=c1[nH]c2cc(/C=C3\c4ccccc4COc4cc(F)ccc43)ccc2n1[C@H]1C[C@H]2COCCN2C1

IC50 (Progesterone receptor [6]): 9020 nM | IC50 (Androgen receptor [7]): 4440 nM | IC50 (Glucocorticoid receptor [8]): 5470 nM | IC50 [9]: 28 nM
SMILES: CCOC(=O)C1=C(C)NC(C)=C(C(C)=O)[C@H]1c1cccc2c(=O)cc(C)oc12

IC50 [10]: 130 nM | IC50 [11]: 21 nM
SMILES: CC1(C)OC(=S)Nc2ccc(NS(=O)(=O)c3cccs3)cc21

IC50 [12]: 22 nM
SMILES: COc1cc(C(=O)Nc2ccc(-c3ccccc3OC(F)(F)F)c(CCN(C)C3CC3)c2)ccc1S(N)(=O)=O

IC50 [13]: 2.4 nM
SMILES: Cc1c(C(=O)Nc2ccc(S(C)(=O)=O)cc2)cn(CCO)c1-c1ccccc1C(F)(F)F

fraction unbound [14]: 0.1
SMILES: COC(=O)[C@@H]1CC2=CC(=O)CC[C@]2(C)[C@@]23O[C@@H]2C[C@@]2(C)[C@@H](CC[C@@]24CCC(=O)O4)[C@H]13 [EPLERENONE]

IC50 [15]: > 1000 nM
SMILES: CCOc1ncc(C)c2c1[C@H](c1ccc(C#N)cc1OC)C(C(N)=O)=C(C)N2 [FINERENONE]

IC50 [16]: < 500 nM
SMILES: CC1(C)Oc2cc(NS(C)(=O)=O)ccc2N(c2ccc(F)cc2)C1=O [MT-3995]

fraction unbound [14]: 0.51
SMILES: CC(=O)S[C@@H]1CC2=CC(=O)CC[C@]2(C)[C@H]2CC[C@@]3(C)[C@@H](CC[C@@]34CCC(=O)O4)[C@H]12 [SPIRONOLACTONE]
